# Laboratory results: patent publication US10010589B2, “Modified therapeutic agents, stapled peptide lipid conjugates, and compositions thereof” (priority 2013, dated 2018)
# pEC50: −log10 of the molar value. *1 amine or outer side, *2 acyl side, *3 side chain or, on linkers, in order; H or OH if unused. Where a SMILES comes first, the peptide text is derived from it. Bridges are numbered along the chain shown (N, C = ends). [ ]: non-standard residue; d: D form. CH2CONH(CH2)4NHCOCH2 = O=C(C[*:1])NCCCCNC(=O)C[*:2]; CH2CONHCH2CH2NHCOCH2 = O=C(C[*:1])NCCNC(=O)C[*:2]; X1 = O=C(c1ccc(C[*:1])cc1)c1ccc(C[*:2])cc1
# Experiments:
# [1] = target: T1, human glucagon-like peptide 1 receptor (GLP-1R) (Homo sapiens, UniProt P43220); assay: cell-based; conditions: HEK293-GLP-1R-CRE cells, luciferase readout; Table 6; read-out: GLP-1R (EC50)
# T1 construct: expressed in transfected cells
# T1 sequence (P43220 24-463): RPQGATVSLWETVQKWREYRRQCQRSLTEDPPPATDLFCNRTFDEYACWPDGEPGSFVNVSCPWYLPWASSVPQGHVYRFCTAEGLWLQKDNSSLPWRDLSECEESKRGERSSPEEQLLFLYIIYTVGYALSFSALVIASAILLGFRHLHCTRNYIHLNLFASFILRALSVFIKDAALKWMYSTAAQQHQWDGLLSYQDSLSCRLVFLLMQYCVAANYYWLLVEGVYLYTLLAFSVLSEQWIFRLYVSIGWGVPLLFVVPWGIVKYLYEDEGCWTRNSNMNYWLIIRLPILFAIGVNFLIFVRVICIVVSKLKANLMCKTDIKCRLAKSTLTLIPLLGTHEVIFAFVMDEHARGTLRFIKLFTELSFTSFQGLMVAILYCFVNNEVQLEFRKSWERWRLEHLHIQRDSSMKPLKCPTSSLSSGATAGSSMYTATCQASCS
# Method: (§1) HEK293 cells were infected with lent virus encoding firefly luciferase gene under the control of CRE promoter, as described in the manual (Qiagen, Netherlands) and then were selected using 1 μg/mL puromycin (Life technologies, Carlsbad) for 1 week. The survived cells were named as CRE-HEK293, expanded and then transfected with a G418 selective mammalian expression plasmid encoding human GCGR, GLP-1R, GIPR or GLP-2R. In brief, GCGR, GLP-1R, GIPR, or GLP-2R plasmid was transfected into CRE-HEK293 cells using Lipofectamine 2000 and selected with 400 μg/mL geneticin (Life technologies, Carlsbad, Calif.). Single colony stable cell lines overexpressing both CRE-luciferase and GCGR, GLP-1R, GIPR, or GLP-2R were then established for in vitro activity assays. These four stable cell lines were named as HEK293-GCGR-CRE, HEK293-GLP-1R-CRE, HEK293-GIPR-CRE, and HEK293-GLP-2R-CRE.
# (§2) Cells were treated with different peptides in a dose dependent manner. On the next day, 10 μl of Bright-Glo reagent (Promega, Madison, Wis.) were added into each well and firefly luminescence was determined using an Envision multilabel plate reader (PerkinElmer, Waltham, Mass.). EC50 of each peptide was calculated using GraphPad Prism 6 software (GraphPad, San Diego, Calif.).
# [2] = target: T2, human glucagon receptor (GCGR) (Homo sapiens, UniProt P47871); assay: GCGR CRE luciferase assay (receptor-mediated cAMP synthesis); format: cell-based
# T2 construct: expressed in transfected cells
# T2 sequence (P47871 26-477): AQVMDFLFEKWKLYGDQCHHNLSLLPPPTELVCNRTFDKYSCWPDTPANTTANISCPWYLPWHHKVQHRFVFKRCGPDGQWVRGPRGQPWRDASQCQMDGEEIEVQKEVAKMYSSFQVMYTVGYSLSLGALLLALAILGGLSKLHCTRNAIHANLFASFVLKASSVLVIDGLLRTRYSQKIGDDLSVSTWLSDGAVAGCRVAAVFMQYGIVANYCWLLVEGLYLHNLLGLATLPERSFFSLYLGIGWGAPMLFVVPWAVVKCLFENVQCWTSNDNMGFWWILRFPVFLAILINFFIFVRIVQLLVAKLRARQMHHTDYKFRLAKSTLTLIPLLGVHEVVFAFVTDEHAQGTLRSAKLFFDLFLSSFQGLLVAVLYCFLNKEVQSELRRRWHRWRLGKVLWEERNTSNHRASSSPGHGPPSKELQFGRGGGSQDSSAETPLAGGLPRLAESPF
# Method: CREB responsive luciferase stable HEK 293 cell line overexpressing human glucagon receptor (GCGR), glucagon-like peptide 1 receptor (GLP-1R), Glucose-dependent insulinotropic polypeptide receptor (GIPR), or Glucagon-like peptide 2 receptor (GLP-2R) was generated as follows.
# as §1
# as §2, with “HEK293-GCGR-CRE, HEK293-GLP-1R-CRE, HEK293-GIPR-CRE, and HEK293-GLP-2R-CRE cells were seeded in a white 384-well plate at a density of 5,000 cells per well and cultured for 24 hours. Cells” for “Cells”
compound,measurement,setting,value
CC[C@H](C)[C@H](NC(=O)[C@H](CC(N)=O)NC(=O)[C@H](CC(N)=O)NC(=O)[C@H](CCCNC(=N)N)NC(=O)[C@H](CC(N)=O)NC(=O)[C@H](CCCNC(=N)N)NC(=O)[C@H](CCCCN)NC(=O)[C@@H](NC(=O)[C@H](CC(N)=O)NC(=O)[C@H](CCSC)NC(=O)[C@H](CC(C)C)NC(=O)[C@H](Cc1c[nH]c2ccccc12)NC(=O)[C@@H]1CSCc2ccc(cc2)C(=O)c2ccc(cc2)CSC[C@H](NC(=O)[C@H](CCC(=O)O)NC(=O)[C@H](CC(=O)O)NC(=O)[C@H](CC(C)C)NC(=O)[C@H](Cc2ccc(O)cc2)NC(=O)[C@H](CCCCN)NC(=O)[C@H](CO)NC(=O)[C@H](Cc2ccc(O)cc2)NC(=O)[C@H](CC(=O)O)NC(=O)[C@H](CO)NC(=O)[C@@H](NC(=O)[C@H](Cc2ccccc2)NC(=O)[C@@H](NC(=O)CNC(=O)[C@H](CCC(N)=O)NC(=O)[C@@H](CO)NC(=O)[C@@H](N)Cc2c[nH]cn2)[C@@H](C)O)[C@@H](C)O)C(=O)N[C@@H](C)C(=O)N[C@@H](C)C(=O)N[C@@H](CCCCN)C(=O)N[C@@H](CCC(=O)O)C(=O)N[C@@H](Cc2ccccc2)C(=O)N[C@@H]([C@@H](C)CC)C(=O)N1)[C@@H](C)O)C(=O)N[C@@H](C)C(N)=O [mTA21] (H-H[dS]QGTFTSDYSKYLDECAAKEFICWLMNTKRNRNNIA-NH2; linker 17-24 via X1),pEC50,[1],9.92
same,pEC50,[2],9.15
CC[C@H](C)[C@@H]1NC(=O)[C@H](Cc2ccccc2)NC(=O)[C@H](CCC(=O)O)NC(=O)[C@H](CCCCN)NC(=O)[C@H](C)NC(=O)[C@H](C)NC(=O)[C@@H](NC(=O)[C@H](CCC(=O)O)NC(=O)[C@H](CC(=O)O)NC(=O)[C@H](CC(C)C)NC(=O)[C@H](Cc2ccc(O)cc2)NC(=O)[C@H](CCCCN)NC(=O)[C@H](CO)NC(=O)[C@H](Cc2ccc(O)cc2)NC(=O)[C@H](CC(=O)O)NC(=O)[C@H](CO)NC(=O)[C@@H](NC(=O)[C@H](Cc2ccccc2)NC(=O)[C@@H](NC(=O)CNC(=O)[C@H](CCC(N)=O)NC(=O)[C@@H](CO)NC(=O)[C@@H](N)Cc2c[nH]cn2)[C@@H](C)O)[C@@H](C)O)CSCC(=O)NCCCCNC(=O)CSC[C@@H](C(=O)N[C@@H](Cc2c[nH]c3ccccc23)C(=O)N[C@@H](CC(C)C)C(=O)N[C@@H](CC(C)C)C(=O)N[C@@H](CCCNC(=N)N)C(=O)N[C@@H](C)C(N)=O)NC1=O [mTA29] (H-H[dS]QGTFTSDYSKYLDECAAKEFICWLLRA-NH2; linker 17-24 via CH2CONH(CH2)4NHCOCH2),pEC50,[1],10.52
same,pEC50,[2],10.52
CC[C@H](C)[C@H](NC(=O)[C@H](CC(N)=O)NC(=O)[C@H](CC(N)=O)NC(=O)[C@H](CCCNC(=N)N)NC(=O)[C@H](CC(N)=O)NC(=O)[C@H](CCCNC(=N)N)NC(=O)[C@H](CCCCN)NC(=O)[C@@H](NC(=O)[C@H](CC(N)=O)NC(=O)[C@H](CCSC)NC(=O)[C@H](CC(C)C)NC(=O)[C@H](Cc1c[nH]c2ccccc12)NC(=O)[C@@H]1CSCC(=O)NCCNC(=O)CSC[C@H](NC(=O)[C@H](CCC(=O)O)NC(=O)[C@H](CC(=O)O)NC(=O)[C@H](CC(C)C)NC(=O)[C@H](Cc2ccc(O)cc2)NC(=O)[C@H](CCCCN)NC(=O)[C@H](CO)NC(=O)[C@H](Cc2ccc(O)cc2)NC(=O)[C@H](CC(=O)O)NC(=O)[C@H](CO)NC(=O)[C@@H](NC(=O)[C@H](Cc2ccccc2)NC(=O)[C@@H](NC(=O)CNC(=O)[C@H](CCC(N)=O)NC(=O)[C@@H](CO)NC(=O)[C@@H](N)Cc2c[nH]cn2)[C@@H](C)O)[C@@H](C)O)C(=O)N[C@@H](C)C(=O)N[C@@H](C)C(=O)N[C@@H](CCCCN)C(=O)N[C@@H](CCC(=O)O)C(=O)N[C@@H](Cc2ccccc2)C(=O)N[C@@H]([C@@H](C)CC)C(=O)N1)[C@@H](C)O)C(=O)N[C@@H](C)C(N)=O [mTA24] (H-H[dS]QGTFTSDYSKYLDECAAKEFICWLMNTKRNRNNIA-NH2; linker 17-24 via CH2CONHCH2CH2NHCOCH2),pEC50,[1],9.70
same,pEC50,[2],8.52
